# Patent US20090061024A1, “COMPOSITIONS AND METHODS EMPLOYING NMDA ANTAGONISTS FOR ACHIEVING AN ANESTHETIC-SPARING EFFECT” (Wyeth, priority 2007, published 2009)
# Where two headings read alike, the source gives them in different places.
# Columns and labels:
# [1] = doses typically used clinically; cited from earlier work
# [2] = tested on: rats trained to distinguish between PCP and saline; conditions: cited from earlier work
# [3] = Anesthetic-sparing effect of perzinfotel with isoflurane (summary statements); format: in vivo, dogs; conditions: in combination with anesthetic (isoflurane); doses without reduced cardiopulmonary function
# [4] = doses needed to relieve hyperalgesia in preclinical pain models; cited from earlier work
# [5] = tested on: cingulate and retrosplenial cortices; conditions: mice and rats, cited from earlier work
smiles,measurement,setting,value
CNC1(c2ccccc2Cl)CCCCC1=O (centres unmarked) [ketamine],anesthetic-sparing effects,[1],10-20%
CC12CC3CC(C)(C1)CC(N)(C3)C2 [memantine],substitution for PCP (discriminative stimulus effects),[2],substitute
"O=c1c2c(c1=O)N(CCP(=O)(O)O)CCCN2 [Perzinfotel, [2-(8,9-dioxo-2,6-diazabicyclo[5.2.0]non-1-(7)-en-2-yl)ethyl]phosphonic acid]",anesthetic-sparing effects,[3],up to 60%
same,substitution for PCP (discriminative stimulus effects),[2],did not substitute
same,ataxia or sedation,[4],did not produce ataxia or sedation
C[C@]12N[C@H](Cc3ccccc31)c1ccccc12 [dizocilpine],substitution for PCP (discriminative stimulus effects),[2],substitute
"O=C(O)[C@H]1C[C@@H](CP(=O)(O)O)CCN1 (relative stereo) [CGS-19755, cis-4-phosphonomethyl-2-piperidine carboxylic acid]",vacuoles in some layers of the cingulate and retrosplenial cortices,[5]; behaviorally effective doses,"transient, reversible induction of vacuoles"
same,effectiveness:vacuolization ratio,[5],1
